Results published in patent US12083124B2 (Incyte Corporation, priority 2019, dated 2024).
Where two headings read alike, the source gives them in different places.

Key:
[1] = target: wild-type un-phosphorylated FGFR3 (Homo sapiens, UniProt P22607); assay: FGFR Enzymatic Assay (FRET peptide phosphorylation), FGFR3
[2] = target: wild-type un-phosphorylated FGFR1 (Homo sapiens, UniProt P11362); assay: FGFR Enzymatic Assay (FRET peptide phosphorylation), FGFR1; conditions: pre-incubated for 4 hours
[3] = target: wild-type un-phosphorylated FGFR2 (Homo sapiens, UniProt P21802); assay: FGFR Enzymatic Assay (FRET peptide phosphorylation), FGFR2
[4] = FGFR1, wild-type un-phosphorylated FGFR1
[5] = read-out: FGFR1, wild-type un-phosphorylated FGFR1
[6] = read-out: FGFR2, wild-type un-phosphorylated FGFR2, pre-incubated for 4 hours
[7] = read-out: FGFR3, wild-type un-phosphorylated FGFR3, pre-incubated for 4 hours

Chain of wild-type un-phosphorylated FGFR3 (P22607 23-806): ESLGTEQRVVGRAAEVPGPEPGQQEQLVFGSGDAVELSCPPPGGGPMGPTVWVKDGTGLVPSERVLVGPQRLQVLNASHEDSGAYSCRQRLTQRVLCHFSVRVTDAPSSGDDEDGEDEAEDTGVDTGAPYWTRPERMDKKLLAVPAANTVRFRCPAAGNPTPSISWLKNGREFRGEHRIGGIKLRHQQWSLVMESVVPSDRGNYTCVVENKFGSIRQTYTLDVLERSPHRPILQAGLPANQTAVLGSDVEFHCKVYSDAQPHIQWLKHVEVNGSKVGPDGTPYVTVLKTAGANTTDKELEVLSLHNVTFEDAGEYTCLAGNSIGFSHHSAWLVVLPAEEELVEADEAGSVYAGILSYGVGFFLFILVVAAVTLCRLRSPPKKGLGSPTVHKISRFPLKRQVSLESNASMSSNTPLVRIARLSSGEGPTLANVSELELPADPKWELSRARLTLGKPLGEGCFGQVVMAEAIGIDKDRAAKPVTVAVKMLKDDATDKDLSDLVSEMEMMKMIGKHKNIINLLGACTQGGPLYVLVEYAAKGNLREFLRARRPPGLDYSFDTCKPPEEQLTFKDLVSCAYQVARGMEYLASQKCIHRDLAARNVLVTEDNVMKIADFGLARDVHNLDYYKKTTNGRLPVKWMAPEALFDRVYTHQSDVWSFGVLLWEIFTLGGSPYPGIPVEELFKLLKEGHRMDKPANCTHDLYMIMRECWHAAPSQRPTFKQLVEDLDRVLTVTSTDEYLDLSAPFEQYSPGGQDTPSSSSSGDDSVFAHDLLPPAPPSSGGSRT
Chain of wild-type un-phosphorylated FGFR2 (P21802 22-821): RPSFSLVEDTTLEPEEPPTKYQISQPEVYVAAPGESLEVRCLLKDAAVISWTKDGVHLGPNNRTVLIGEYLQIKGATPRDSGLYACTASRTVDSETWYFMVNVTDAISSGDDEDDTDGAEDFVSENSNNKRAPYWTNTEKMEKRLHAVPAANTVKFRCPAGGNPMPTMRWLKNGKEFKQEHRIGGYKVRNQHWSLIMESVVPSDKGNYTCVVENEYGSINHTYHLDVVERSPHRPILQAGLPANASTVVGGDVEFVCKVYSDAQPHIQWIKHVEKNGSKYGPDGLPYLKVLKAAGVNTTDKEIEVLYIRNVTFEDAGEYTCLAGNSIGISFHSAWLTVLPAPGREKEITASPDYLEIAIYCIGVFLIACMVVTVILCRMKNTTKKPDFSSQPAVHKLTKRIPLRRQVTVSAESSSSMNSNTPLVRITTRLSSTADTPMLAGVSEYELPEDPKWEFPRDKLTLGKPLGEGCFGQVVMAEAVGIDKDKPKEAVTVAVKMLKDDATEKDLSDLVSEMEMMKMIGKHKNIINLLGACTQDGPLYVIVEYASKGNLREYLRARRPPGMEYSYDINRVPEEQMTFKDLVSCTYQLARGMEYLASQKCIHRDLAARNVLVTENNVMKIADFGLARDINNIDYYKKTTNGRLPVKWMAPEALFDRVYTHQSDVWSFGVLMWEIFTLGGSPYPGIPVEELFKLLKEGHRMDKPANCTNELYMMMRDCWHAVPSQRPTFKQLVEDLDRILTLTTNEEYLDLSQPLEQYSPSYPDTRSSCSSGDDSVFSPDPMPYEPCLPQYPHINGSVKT
Chain of wild-type un-phosphorylated FGFR1 (P11362 22-822): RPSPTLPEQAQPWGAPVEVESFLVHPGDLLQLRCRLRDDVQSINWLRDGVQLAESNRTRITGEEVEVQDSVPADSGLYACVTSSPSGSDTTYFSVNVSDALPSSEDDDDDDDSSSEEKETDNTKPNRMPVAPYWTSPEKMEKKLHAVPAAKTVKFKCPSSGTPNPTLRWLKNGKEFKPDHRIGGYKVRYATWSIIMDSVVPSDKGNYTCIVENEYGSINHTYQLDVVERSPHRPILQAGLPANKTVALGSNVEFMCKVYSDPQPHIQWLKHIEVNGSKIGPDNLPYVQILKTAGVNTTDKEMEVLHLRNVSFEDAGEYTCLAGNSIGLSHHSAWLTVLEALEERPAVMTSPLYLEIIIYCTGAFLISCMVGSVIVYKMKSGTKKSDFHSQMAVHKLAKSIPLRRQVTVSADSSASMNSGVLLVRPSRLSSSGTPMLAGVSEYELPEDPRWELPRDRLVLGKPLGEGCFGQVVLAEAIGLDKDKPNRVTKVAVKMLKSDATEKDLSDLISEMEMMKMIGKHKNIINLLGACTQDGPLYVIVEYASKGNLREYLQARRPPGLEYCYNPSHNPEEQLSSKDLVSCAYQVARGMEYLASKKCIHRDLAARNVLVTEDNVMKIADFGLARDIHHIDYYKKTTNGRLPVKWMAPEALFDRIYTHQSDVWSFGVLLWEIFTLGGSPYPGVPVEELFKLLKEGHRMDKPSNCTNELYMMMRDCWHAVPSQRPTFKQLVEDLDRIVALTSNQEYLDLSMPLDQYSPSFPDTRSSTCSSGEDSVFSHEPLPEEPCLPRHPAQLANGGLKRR

| SMILES | IC50 [1] [nM] | IC50 [2, 4] [nM] | IC50 [3] [nM] | IC50 [2, 5] [nM] | IC50 [3, 6] [nM] | IC50 [1, 7] [nM] |
| --- | --- | --- | --- | --- | --- | --- |
| COc1cc2[nH]nc(-c3ccc(N4CCN(C)C(=O)C4)nc3)c2nc1-c1cccc(C)c1C [Example 45, 4-(5-(5-(2,3-Dimethylphenyl)-6-methoxy-1H-pyrazolo[4,3-b]pyridin-3-yl)pyridin-2-yl)-1-methylpiperazin-2-one] | < 6 | > 100 | < 6 |  |  |  |
| COc1cc2[nH]nc(-c3ccc(N4CCN5C[C@H](O)C[C@H]5C4)nc3)c2nc1-c1cccc2c1CC(F)C2 (stereo partly drawn) [Example 83, (7R,8aS)-2-(5-(5-(2-Fluoro-2,3-dihydro-1H-inden-4-yl)-6-methoxy-1H-pyrazolo[4,3-b]pyridin-3-yl)pyridin-2-yl)octahydropyrrolo[1,2-a]pyrazin-7-ol] | < 6 |  | < 6 | 6 to 40 |  |  |
| COc1cc2[nH]nc(-c3ccc(OC4CCOC4)nc3)c2nc1-c1cccc2c1CC(O)C2 (single isomer, unassigned) [Example 73, 4-(6-Methoxy-3-(6-((tetrahydrofuran-3-yl)oxy)pyridin-3-yl)-1H-pyrazolo[4,3-b]pyridin-5-yl)-2,3-dihydro-1H-inden-2-ol] | < 6 | 40 to 100 |  |  | 6 to 40 |  |
| Cn1cc(-c2n[nH]c3cc(Cl)c(-c4cccc5c4CC(O)C5)nc23)cn1 (single isomer, unassigned) [Example 39, 4-(6-Chloro-3-(1-methyl-1H-pyrazol-4-yl)-1H-pyrazolo[4,3-b]pyridin-5-yl)-2,3-dihydro-1H-inden-2-ol] | < 6 | 40 to 100 |  |  | 6 to 40 |  |
| COc1cc2[nH]nc(-c3ccc(C4CCC(C(=O)O)CC4)nc3)c2nc1-c1cccc(C)c1C (stereo not drawn) [Example 79, 4-(5-(5-(2,3-Dimethylphenyl)-6-methoxy-1H-pyrazolo[4,3-b]pyridin-3-yl)pyridin-2-yl)cyclohexane-1-carboxylic acid] | < 6 | 40 to 100 | < 6 |  |  |  |
| COc1cc2[nH]nc(-c3ccc(N4CCC(C(=O)N(C)C)CC4)nc3)c2nc1-c1cccc(C)c1C [Example 50, 1-(5-(5-(2,3-Dimethylphenyl)-6-methoxy-1H-pyrazolo[4,3-b]pyridin-3-yl)pyridin-2-yl)-N,N-dimethylpiperidine-4-carboxamide] | < 6 | > 100 | < 6 |  |  |  |
| [2H]C([2H])([2H])Oc1cc2[nH]nc(-c3ccc(N4CCN(C)CC4)nc3)c2nc1-c1cccc(C)c1C [Example 48, 5-(2,3-Dimethylphenyl)-6-(methoxy-d3)-3-(6-(4-methylpiperazin-1-yl)pyridin-3-yl)-1H-pyrazolo[4,3-b]pyridine] | < 6 | 40 to 100 | < 6 |  |  |  |
| COc1cc2[nH]nc(-c3ccc(N4C[C@@H](F)[C@@H](N)C4)nc3)c2nc1-c1cccc(C)c1C [Example 80, (3S,4R)-1-(5-(5-(2,3-Dimethylphenyl)-6-methoxy-1H-pyrazolo[4,3-b]pyridin-3-yl)pyridin-2-yl)-4-fluoropyrrolidin-3-amine] | < 6 | 40 to 100 | < 6 |  |  |  |
| COc1cc2[nH]nc(-c3ccc(C45CC4CN(C(=O)CO)C5)nc3)c2nc1-c1cccc2c1CCC2 (single isomer, unassigned) [Example 191C, 1-(1-(5-(5-(2,3-Dihydro-1H-inden-4-yl)-6-methoxy-1H-pyrazolo[4,3-b]pyridin-3-yl)pyridin-2-yl)-3-azabicyclo[3.1.0]hexan-3-yl)-2-hydroxyethan-1-one] |  |  |  | 6 to 40 | < 6 | < 6 |
| COc1cc2[nH]nc(-c3ccc(C45CC4CN(C(=O)CO)C5)nc3)c2nc1-c1cccc2c1CCC2 (single isomer, unassigned) [Example 191B, 1-(1-(5-(5-(2,3-Dihydro-1H-inden-4-yl)-6-methoxy-1H-pyrazolo[4,3-b]pyridin-3-yl)pyridin-2-yl)-3-azabicyclo[3.1.0]hexan-3-yl)-2-hydroxyethan-1-one] | < 6 |  | < 6 | 6 to 40 |  |  |
| COc1cc2[nH]nc(-c3cnn(C)c3)c2nc1-c1cccc2c1CCC2CO (single isomer, unassigned) [Example 12, (4-(6-Methoxy-3-(1-methyl-1H-pyrazol-4-yl)-1H-pyrazolo[4,3-b]pyridin-5-yl)-2,3-dihydro-1H-inden-1-yl)methanol] |  |  |  | 40 to 100 | < 6 | < 6 |
| COc1cc2[nH]nc(-c3ccc(C4(C#N)CCN(C(=O)[C@H]5COCCN5C)C4)nc3)c2nc1-c1cccc2c1CCC2 (stereo partly drawn) [Example 195, 3-(5-(5-(2,3-Dihydro-1H-inden-4-yl)-6-methoxy-1H-pyrazolo[4,3-b]pyridin-3-yl)pyridin-2-yl)-1-((R)-4-methylmorpholine-3-carbonyl)pyrrolidine-3-carbonitrile] | < 6 |  | < 6 | 6 to 40 |  |  |
| COc1cc2[nH]nc(-c3ccc(C4CCN(C(=O)CO)CC4)nc3)c2nc1-c1cccc2c1CC(F)C2 (stereo not drawn) [Example 82, 1-(4-(5-(5-(2-Fluoro-2,3-dihydro-1H-inden-4-yl)-6-methoxy-1H-pyrazolo[4,3-b]pyridin-3-yl)pyridin-2-yl)piperidin-1-yl)-2-hydroxyethan-1-one] | < 6 |  | < 6 | 6 to 40 |  |  |
| COc1cc2[nH]nc(-c3cnn(C)c3)c2nc1-c1cccc2c1CCC2CO (single isomer, unassigned) [Example 11, (4-(6-Methoxy-3-(1-methyl-1H-pyrazol-4-yl)-1H-pyrazolo[4,3-b]pyridin-5-yl)-2,3-dihydro-1H-inden-1-yl)methanol] | < 6 | 40 to 100 | < 6 |  |  |  |
| COc1cc2[nH]nc(-c3ccc(N4CCC5(CC4)CNC(=O)O5)nc3)c2nc1-c1cccc(C)c1C [Example 65, 8-(5-(5-(2,3-Dimethylphenyl)-6-methoxy-1H-pyrazolo[4,3-b]pyridin-3-yl)pyridin-2-yl)-1-oxa-3,8-diazaspiro[4.5]decan-2-one] | < 6 | > 100 | < 6 |  |  |  |
| COc1cc2[nH]nc(-c3ccc(N4CCN(CCO)CC4)nc3)c2nc1-c1cccc(CC#N)c1C [Example 89, 2-(3-(3-(6-(4-(2-Hydroxyethyl)piperazin-1-yl)pyridin-3-yl)-6-methoxy-1H-pyrazolo[4,3-b]pyridin-5-yl)-2-methylphenyl)acetonitrile] | < 6 | > 100 | < 6 |  |  |  |
| COc1cc2[nH]nc(-c3ccc(C4CC(=O)N(C)C4)nc3)c2nc1-c1cccc2c1CCC2C#N (single isomer, unassigned) [Example 76, 4-(6-Methoxy-3-(6-(1-methyl-5-oxopyrrolidin-3-yl)pyridin-3-yl)-1H-pyrazolo[4,3-b]pyridin-5-yl)-2,3-dihydro-1H-indene-1-carbonitrile] |  |  |  | 6 to 40 | < 6 | < 6 |
| COc1cc2[nH]nc(-c3ccc(C45CC4CN(CCO)C5)nc3)c2nc1-c1cccc2c1CCC2 (single isomer, unassigned) [Example 194C, 2-(1-(5-(5-(2,3-Dihydro-1H-inden-4-yl)-6-methoxy-1H-pyrazolo[4,3-b]pyridin-3-yl)pyridin-2-yl)-3-azabicyclo[3.1.0]hexan-3-yl)ethan-1-ol] |  |  |  | 6 to 40 | < 6 | < 6 |
| COc1cc2[nH]nc(-c3ccc(N4CCN5C[C@H](O)C[C@H]5C4)nc3)c2nc1-c1cccc2c1OCCO2 [Example 91, (7R,8aS)-2-(5-(5-(2,3-Dihydrobenzo[b][1,4]dioxin-5-yl)-6-methoxy-1H-pyrazolo[4,3-b]pyridin-3-yl)pyridin-2-yl)octahydropyrrolo[1,2-a]pyrazin-7-ol] | < 6 | > 100 |  |  | 6 to 40 |  |
| COc1cc2[nH]nc(-c3ccc(C4CC(=O)N(C)C4)nc3)c2nc1-c1cccc2c1CCC2C#N (single isomer, unassigned) [Example 75, 4-(6-Methoxy-3-(6-(1-methyl-5-oxopyrrolidin-3-yl)pyridin-3-yl)-1H-pyrazolo[4,3-b]pyridin-5-yl)-2,3-dihydro-1H-indene-1-carbonitrile] | < 6 |  | < 6 | 6 to 40 |  |  |
| COc1cc2[nH]nc(-c3ccc(N4CCN5C[C@H](O)C[C@H]5C4)nc3)c2nc1-c1cccc(OC)c1C [Example 90, (7R,8aS)-2-(5-(6-Methoxy-5-(3-methoxy-2-methylphenyl)-1H-pyrazolo[4,3-b]pyridin-3-yl)pyridin-2-yl)octahydropyrrolo[1,2-a]pyrazin-7-ol] | < 6 | > 100 |  |  | 6 to 40 |  |
| COc1cc2[nH]nc(-c3ccc(C4CCN(C(=O)[C@H](C)O)CC4)nc3)c2nc1-c1cccc2c1CC(F)C2 (single isomer, unassigned) [Example 81] | < 6 |  | < 6 | 6 to 40 |  |  |
| COc1cc2[nH]nc(-c3ccc(C4(C#N)CCN(C(=O)[C@H]5COCCN5C)CC4)nc3)c2nc1-c1cccc2c1CCC2 [Example 196, (R)-4-(5-(5-(2,3-Dihydro-1H-inden-4-yl)-6-methoxy-1H-pyrazolo[4,3-b]pyridin-3-yl)pyridin-2-yl)-1-(4-methylmorpholine-3-carbonyl)piperidine-4-carbonitrile] | < 6 |  | < 6 | 6 to 40 |  |  |
| COc1cc2[nH]nc(-c3ccc(N4CCS(=N)(=O)CC4)nc3)c2nc1-c1cccc(C)c1C [Example 86, 4-(5-(5-(2,3-Dimethylphenyl)-6-methoxy-1H-pyrazolo[4,3-b]pyridin-3-yl)pyridin-2-yl)-1-imino-1λ^6-thiomorpholine 1-oxide] | < 6 | > 100 | < 6 |  |  |  |
